Measured values from patent US8586552B2, “4,6-substituted 2,5-dideoxystreptamine aminoglycoside antibiotics” (SelectX Pharmaceuticals, Inc., priority 2012, dated 2013).
In brackets after ≈: the same amount, converted by molar mass.

Columns and labels:
[1] = system: Pseudomonas aeruginosa PR1 (clinical isolate with intermediate aminoglycoside resistance); test: MIC against Pseudomonas aeruginosa clinical isolate PR1; type: cell-based; conditions: Pseudomonas aeruginosa resistant strain PR1
Excerpt: (§1) Pseudomonas aeruginosa is a prominent nosocomial pathogen. In addition to intrinsic antibiotic resistance to several antibiotics, Pseudomonas has acquired multiple additional mechanisms of resistance. As a result, therapeutic options for the treatment of infections caused by Pseudomonas aeruginosa are limited. We acquired clinical isolates of Pseudomonas aeruginosa (Micromyx LLC, Kalamazoo, Mich.), and used this panel to test compounds for Pseudomonicidal activity. […] For each strain and antibiotic, the mechanism(s) of resistance was inferred from the resistance profile. The presence of specific AGMEs was confirmed by colony PCR.

[2] = system: Klebsiella pneumoniae KR1 (clinical isolate with intermediate aminoglycoside resistance); test: MIC against Klebsiella pneumoniae clinical isolate KR1; type: cell-based; conditions: Klebsiella pneumonia KR1; in µg/mL
Excerpt: (§2) Klebsiella pneumoniae (Kpn) and Escherichia coli (Eco) are gram-negative (like Pae), enteric pathogens with increasing clinical relevance. Many clinical isolates of Kpn and Eco harbor extended-spectrum beta-lactamases and are no longer sensitive to most beta-lactam antibiotics. We acquired clinical isolates of Klebsiella pneumoniae and Escherichia coli (Micromyx LLC, Kalamazoo, Mich.) and used this panel to test compounds for anti-enteric activity.

[3] = system: Pseudomonas aeruginosa (Pae, PAWT, ATCC #27853); test: MIC against Pseudomonas aeruginosa reference strain PAWT; type: cell-based; conditions: Pseudomonas aeruginosa wild type PAWT
Excerpt: (§3) For evaluation of efficacy, we assembled panels of representative gram-negative pathogens, including Pseudomonas aeruginosa (Pae, PAWT, ATCC #27853), Klebsiella pneumoniae (Kpn, KPWT, ATCC #700603), Acinetobacter baumannii (Aba, ABWT, ATCC #BAA-747) and Escherichia coli (Eco, ECWT, ATCC #25922). These reference strains are useful indicator organisms to characterize compound activity against bacteria from a pathogenic genus in the absence of multiple resistance mechanisms. Two strains (PAWT and ECWT) are reference strains cited within the Clinical and Laboratory Standards Institute (CLSI) Standards for susceptibility testing by Minimum Inhibitory Concentration (MIC) (SXPS2) and are well suited for quality control. ABWT and ECWT are widely susceptible to aminoglycoside antibiotics, whereas PAWT and KPWT harbor a single aminoglycoside-modifying enzyme (AGME) that targets 4,6-substituted-2-deoxystreptamine AGs. […]

[4] = system: Klebsiella pneumoniae KR3 (clinical isolate possessing high-level aminoglycoside resistance); test: MIC against Klebsiella pneumoniae clinical isolate KR3; type: cell-based; conditions: Klebsiella pneumonia KR3; in µg/mL
Excerpt: as §2

[5] = system: Pseudomonas aeruginosa PR3 (high-level, efflux-mediated, pan-aminoglycoside resistance); test: MIC against Pseudomonas aeruginosa clinical isolate PR3; type: cell-based; conditions: for MIC PR3: Pseudomonas aeruginosa resistant strain PR3
Excerpt: as §1

[6] = system: Klebsiella pneumoniae (Kpn, KPWT, ATCC #700603); test: MIC against Klebsiella pneumoniae reference strain KPWT; type: cell-based
Excerpt: as §3, with “These reference strains are useful indicator organisms to characterize compound activity against bacteria from a pathogenic genus in the absence of multiple resistance mechanisms.” left out

[7] = system: Pseudomonas aeruginosa PR2 (clinical isolate with intermediate aminoglycoside resistance); test: MIC against Pseudomonas aeruginosa clinical isolate PR2; type: cell-based; conditions: Pseudomonas aeruginosa resistant strain PR2
Excerpt: as §1

[8] = system: Klebsiella pneumoniae KR2 (clinical isolate with intermediate aminoglycoside resistance); test: MIC against Klebsiella pneumoniae clinical isolate KR2; type: cell-based; conditions: Klebsiella pneumonia KR2
Excerpt: as §2

[9] = system: Klebsiella pneumoniae screening panel KPWT, KR1, KR2, KR3; test: Klebsiella pneumoniae screening panel (KPWT, KR1, KR2, KR3), reference AGs; type: cell-based
Excerpt: as §2

[10] = system: Acinetobacter baumannii (Aba, ABWT, ATCC #BAA-747); test: MIC against Acinetobacter baumannii reference strain ABWT; type: cell-based
Excerpt: as §3

[11] = system: P. aeruginosa 6294 MLP-3; test: Rat neutropenic thigh model; type: in vivo
Description: The compound identified as SXP 2523 was selected for further testing in vivo. Twenty male Sprague Dawley rats were pre-treated with cyclophosphamide to render them neutropenic on day −4 and day −1 with 100 mg/kg and 75 mg/kg respectively. Rats were infected with P. aeruginosa 6294 MLP-3, via injection into the right thigh muscle of 0.1 mL per rat. Two hours post infection rats were treated intravenously with either SXP-2523 or amikacin in a total dose of 10 or 60 mg/kg, respectively. The test article and control agent were delivered at 2, 4, and 6 hours post infection. Five rats were treated with each drug concentration. One group of five rats was euthanized at initiation of treatment and thigh CFUs were processed (T=Rx). Twenty-four hours post infection rats were euthanized by CO2 inhalation. The right thigh muscles of the rats were aseptically removed, weighed, homogenized, serially diluted, and plated on MacConkey medium. The plates were incubated overnight at 37° C. in 5% CO2. CFU per gram of thigh was calculated by enumerating the plated colonies then adjusting for serial dilutions and the weight of the thigh. The following table 7 summarizes the results Table 6: […]

[12] = system: Escherichia coli (Eco, ECWT, ATCC #25922); test: MIC against Escherichia coli reference strain ECWT; type: cell-based
Excerpt: For evaluation of efficacy, we assembled panels of representative gram-negative pathogens, including Pseudomonas aeruginosa (Pae, PAWT, ATCC #27853), Klebsiella pneumoniae (Kpn, KPWT, ATCC #700603), Acinetobacter baumannii (Aba, ABWT, ATCC #BAA-747) and Escherichia coli (Eco, ECWT, ATCC #25922). These reference strains are useful indicator organisms to characterize compound activity against bacteria from a pathogenic genus in the absence of multiple resistance mechanisms. Two strains (PAWT and ECWT) are reference strains cited within the Clinical and Laboratory Standards Institute (CLSI) Standards for susceptibility testing by Minimum Inhibitory Concentration (MIC) (SXPS2) and are well suited for quality control. ABWT and ECWT are widely susceptible to aminoglycoside antibiotics, whereas PAWT and KPWT harbor a single aminoglycoside-modifying enzyme (AGME) that targets 4,6-substituted-2-deoxystreptamine AGs.

[13] = system: resistant strain of P. aeruginosa (P. aeruginosa 6294 MLP-3); test: Rat neutropenic thigh model against resistant P. aeruginosa; type: in vivo; conditions: resistant P. aeruginosa
Description: The compound identified as SXP 2523 was further tested in vivo against a resistant strain of P. aeruginosa. Twenty male Sprague Dawley rats were rendered neutropenic by treatment with cyclophosphamide on day −4 and day −1 with 100 mg/kg and 75 mg/kg, respectively. Rats were infected with P. aeruginosa 6294 MLP-3, via injection into the right thigh muscle of 0.1 mL per rat. Two hours post infection rats were treated intravenously with either SXP-2523 or amikacin in a total dose of 10 or 60 mg/kg, respectively. The test article and control agent were delivered at 2, 4, and 6 hours post infection. Five rats were treated with each drug concentration. One group of five rats were euthanized at initiation of treatment and thigh CFUs were determined (T=Rx). Twenty-four hours post infection; rats were euthanized by CO2 inhalation. The right thigh muscles of the rats were aseptically removed, weighed, homogenized, serially diluted, and plated on BHI medium. The plates were incubated overnight at 37° C. in 5% CO2. CFU per gram of thigh was calculated by enumerating the plated colonies then adjusting for serial dilutions and the weight of the thigh.

[14] = system: more than fifty resistant contemporary clinical isolates of Pseudomonas aeruginosa; test: MIC90 against panel of resistant clinical isolates of Pseudomonas aeruginosa; type: cell-based; conditions: Pseudomonas aeruginosa
Excerpt: To assess this, a panel of more than fifty resistant contemporary clinical isolates of Pseudomonas aeruginosa were obtained from multiple sources including JMI Laboratories (North Liberty, Iowa), Pfizer (Groton, Conn.), Micromyx (Kalamazoo, Mich.), Dr. J. Chow (Wayne State University). Strains were characterized for resistance to a wide variety of classes of antibiotics including aminoglycosides, β-lactams and fluoroquinolones. […] This reflects the difficulty in treating clinical Pseudomonas aeruginosa infections. […] Using this stringent panel, we tested a subset of compounds of the invention (Table 4).

[15] = system: fifty resistant contemporary clinical isolates of Klebsiella pneumoniae; test: MIC90 against panel of resistant clinical isolates of Klebsiella pneumoniae; type: cell-based; conditions: Klebsiella pneumoniae; fifty resistant contemporary clinical isolates, reference antibiotics
Excerpt: Using this stringent Klebsiella pneumoniae panel, we tested a subset of compounds of the invention.

[16] = Log CFU/thigh, total dose 10 mg/kg SXP-2523 or 60 mg/kg amikacin iv
[17] = neutropenic male Sprague Dawley rats, iv at 2, 4, 6 h post infection, total dose 10 mg/kg SXP-2523 or 60 mg/kg amikacin, 24 h post infection
[18] = Klebsiella pneumoniae KPWT, Table 2

NCC[C@H](O)C(=O)N[C@@H]1C[C@H](N)[C@@H](O[C@H]2O[C@H](CN)[C@@H](O)[C@H](O)[C@H]2O)[C@@H](F)[C@H]1O[C@H]1O[C@H](CNC2CC2)[C@@H](O)[C@H](N)[C@H]1O [SXP1212-56″-16]
MIC PR1 [1]: 2 to 8 µg/mL
MIC KR1 [2]: 0.5-1
MIC PAWT [3]: 1 µg/mL (≈ 1.6 µM)
MIC KR3 [4]: 16
MIC PR3 [5]: 32 µg/mL (≈ 51.1 µM)
MIC KPWT ([6]; Klebsiella pneumonia KPWT, Table 5 (unit not given), in µg/mL): <0.25
MIC PR2 [7]: <0.25 to 4 µg/mL
MIC KR2 [8]: 1

NCC[C@H](O)C(=O)N[C@@H]1C[C@H](N)[C@@H](O[C@H]2O[C@H](CN)[C@@H](O)[C@H](O)[C@H]2O)[C@H](O)[C@H]1O[C@H]1O[C@H](CO)[C@@H](O)[C@H](N)[C@H]1O [amikacin]
MIC [1]: 8 µg/mL (≈ 13.7 µM)
potency against Klebsiella pneumoniae test panel [9]: potency against 3 of 4 strains tested
MIC ([10]; ATCCBAA747): 1 µg/mL (≈ 1.71 µM)
MIC ([3]; ATCC27853): 1 to 2 µg/mL (≈ 1.71 to 3.42 µM)
Change from 24 hr. control [11, 16]: −1.49
Change from T = Rx controls [11, 16]: 1.59
Log CFU/thigh [11, 17]: 5.77 Log CFU/thigh
MIC ([5]; Pseudomonas aeruginosa, read-out: MIC PR3): 64 µg/mL (≈ 109 µM)
MIC ([12]; ATCC25922): 2 to 4 µg/mL (≈ 3.42 to 6.83 µM)
Change from 24 hr. control [13, 16]: −2.73
Change from T = Rx controls [13, 16]: 0.43
Log CFU/thigh [13, 17]: 3.92 Log CFU/thigh
MIC ([6]; ATCC700603, Klebsiella pneumoniae KPWT, Table 2): 1 µg/mL (≈ 1.71 µM)
MIC [7]: 8 to 16 µg/mL (≈ 13.7 to 27.3 µM)
MIC90 [14]: ≥ 64 µg/mL
MIC90 [15]: ≥ 64 µg/mL

NC[C@H]1O[C@H](O[C@H]2[C@H](O)[C@@H](O[C@H]3O[C@H](CO)[C@@H](O)[C@H](N)[C@H]3O)[C@H](N)C[C@@H]2N)[C@H](O)[C@@H](O)[C@@H]1O [kanamycin A]
MIC PR1 [1]: >64 µg/mL
potency against Klebsiella pneumoniae test panel [9]: limited to no activity
MIC ABWT [10]: 1 µg/mL (≈ 2.06 µM)
MIC PAWT [3]: >64 µg/mL
MIC PR3 [5]: >64 µg/mL
MIC ECWT [12]: 4 µg/mL (≈ 8.26 µM)
MIC KPWT [6, 18]: 32 µg/mL (≈ 66 µM)
MIC PR2 [7]: >64 µg/mL

NC[C@H]1O[C@H](O[C@H]2[C@H](O)[C@@H](O[C@H]3O[C@H](CO)[C@@H](O)[C@H](N)[C@H]3O)[C@H](N)C[C@@H]2N)[C@H](N)[C@@H](O)[C@@H]1O [kanamycin B]
MIC PR1 [1]: 64 µg/mL (≈ 132 µM)
potency against Klebsiella pneumoniae test panel [9]: limited to no activity
MIC ABWT [10]: 0.5 to 1 µg/mL
MIC PAWT [3]: 16 µg/mL (≈ 33.1 µM)
MIC PR3 [5]: >64 µg/mL
MIC ECWT [12]: 2 µg/mL (≈ 4.14 µM)
MIC KPWT [6, 18]: 16 µg/mL (≈ 33.1 µM)
MIC PR2 [7]: >64 µg/mL
